Results published in paper PMC10667816, “A Cell‐Penetrant Peptide Disrupting the Transcription Factor CP2c Complexes Induces Cancer‐Specific Synthetic Lethality” (Advanced Science, 2023).
Where a SMILES comes first, the peptide text is derived from it.

Legend:
[1] = tested on: U343 glioma cells; assay: U343 CDX mouse model; assay type: in vivo; conditions: intravenous injection every 2 or 3 days from day 14
Protocol: Animal experiments were conducted in accordance with ethical guidelines, and all protocols were approved by the Institutional Animal Care and Use Committee under Hanyang University (approval numbers, 2014‐0016A, 2018‐0049A, 2018‐0207A, and 2019‐0169A), Chung‐Ang University (approval number, 2015‐00022), Chungbuk University (approval number, CBNUA‐1072‐17‐02), and Konkuk University (approval number, KU17130). To establish xenograft mice models, Hep3B, A431, U343, and PC9 cells were subcutaneously injected into the flank of Balb/c nude mice. For the MDA‐MB‐231 (LM1) cell line, it was implanted into the mammary fat pad of immunodeficient mice (NPG mice). […] Tumor volume was calculated using the formula of length × width^2)/2. […] The in vivo administration amount was determined based on the concentration of ACP52C confirmed at the cellular level, which was 2 µM. […] For ACP52C derivatives, the amount was adjusted to ensure a similar molar quantity of peptide injection, taking their molecular weights into account. For instance, in the case of ACP52CGK, ≈1.67 times the quantity was used compared to ACP52C to achieve an equivalent molar quantity. […] Hematoxylin and eosin (H&E)‐stained tissue sections were analyzed and photographed, and the representative histological images were recorded. […]

[2] = In vivo metabolic stability test by live imaging; design: species or system mouse; conditions: Hep3B CDX Balb/c nude mice, intravenous Cy5‐ACP52C 17 mg kg^−1, live imaging fluorescence over 24 h
Excerpt: (1 picture or pasted object on this page, not shown here)
Scale bar represents 10 μm.

[3] = tested on: murine erythroleukemia (MEL) cells; assay: Erythroid differentiation of MEL cells; assay type: cell-based; conditions: HMBA‐induced MEL cells, supplementation to the culture
Protocol: Information of the cell lines is listed in Table S1 (Supporting Information), including their origin and culture conditions. All cell lines were cultured at 37 °C, 5% CO2 incubator. MDA‐MB‐231 (LM1), HepG2, Hep3B, and HCT116 cell lines were authenticated with short tandem repeat markers based on ATCC information. All cell lines tested negative for mycoplasma contamination. Transient downregulation of the gene of interest was conducted by siRNA transfection using Lipofectamine 2000 (Thermo Fisher, 11668019) according to the manufacturer's instructions. Information about siRNAs is provided in Table S2 (Supporting Information). Stable cell lines were established by transfecting cells using Effectene reagent (Qiagen, 301425), followed by selection of cell clones in the presence of 1 µg mL^−1 puromycin (Sigma–Aldrich, P8833). The establishment of cell lines was confirmed by WB or RT‐qPCR. For doxycycline‐inducible gene expression regulation, cell lines were incubated in the presence of 1 µg mL^−1 doxycycline (Sigma–Aldrich, D9891) for 2–3 days. To promote sphere formation of the cell lines, each well of the tissue culture dish was coated with 10% poly 2‐hydroxyethyl methacrylate (polyHEMA). An appropriate number of cells per well were seeded in serum‐free DMEM/F12 (HyClone, SH30023.01) supplemented with B27, 20 ng mL^−1 bFGF, and 20 ng mL^−1 EGF. For erythroid terminal differentiation experiments, differentiation was assessed by hemoglobin staining using a 0.2% (w/v) tetramethylbenzidine solution (Sigma–Aldrich, T0440) in 0.6% hydrogen peroxide, 3% acetic acid for 10 min in dark condition. Benzidine‐positive or negative cell numbers were counted under the inverted microscope BX50 (Olympus) at 200 × magnification. […] After each synchronization, cells were fixed at 4‐h intervals for 24 h with ACP52C treatment, and the cell cycle was analyzed by Propidium Iodide (PI) staining or intracellular protein was analyzed by immunofluorescence. […] This development period was repeated four times for one round, after which GI50 concentrations were re‐assessed in each resistant cell line. […]

Compound | tumor weight [1] | systemic metabolic stability in vivo (RL50, time for 50% retention of fluorescence) [2] | inhibition of erythroid differentiation [3]
CC(=O)N[C@@H](CC(N)=O)C(=O)N[C@@H](Cc1ccc(O)cc1)C(=O)N1CCC[C@H]1C(=O)N[C@@H](CCC(N)=O)C(=O)N[C@@H](CCCNC(=N)N)C(=O)N1CCC[C@H]1C(=O)N[C@@H](CS)C(=O)N[C@@H](CCCNC(=N)N)C(=O)NCC(=O)N[C@@H](CC(=O)O)C(=O)N[C@@H](CCCCN)C(=O)NCC(=O)N1CCC[C@H]1C(=O)N[C@@H](CC(=O)O)C(=O)N[C@@H](CS)C(N)=O [ACP52C] (Ac-NYPQRPCRGDKGPDC-NH2) | significantly reduced tumor weight | ≈ 7.8 h | inhibition of erythroid differentiation
CCOc1ccccc1C1CC(=O)Nc2cc3c(cc21)OCO3 (stereo not shown) [FQI1, Factor Quinolinone Inhibitor 1, reference compound] | – | – | limited inhibitory effects on MEL cell differentiation in vitro
